According to patent US6087375A, “Methods of treating or preventing thromboses” (priority 1999, dated 2000):

How the values were obtained:
[1] = system: human platelets (thrombin-induced aggregation); assay: Thrombin-induced platelet aggregation assay; type: cell-based; conditions: for IC50 (estimated concentration which inhibits 50% of the aggregation): 0.5 U/mL human thrombin, 37° C., conjugate: average of 10 argatrobans/RSA used
Description: (§1) The conjugate was prepared according to the following protocol. A 15 μM solution of RSA in PBS was reacted with 200 μM argatroban-C6 NHS ester for 1 hour at room temperature. Sham samples consist of the RSA incubated for the same length of time at RT in 2% DMSO in PBS. Each of the samples was then concentrated to a final volume of 1.5 mL using Amicon Centricon 30 filtration/concentration devices. The concentrated samples were then desalted on Pierce's 5 ML Kwiksep excellulose plastic desalting columns. The excluded volumes containing RSA or argatroban-C6-RSA were then subjected to BCA microprotein estimation and lyophilization. In addition, these samples were analyzed by LC/MS, sandwich ELISA assays (described above) to measure thrombin binding and immunoblotting.
Platelets were purified from freshly drawn human blood diluted with the anticoagulant buffer ACD (9 mls of blood to 1 mL of buffer). The blood was centrifuged for 25 min at 200×g. The platelet-rich plasma (PRP) was recovered with a plastic pipette. The PRP was centrifuged for 15 min at 3,000×g in v-shaped plastic tubes. The supernatant, called platelet-poor plasma (PPP), was then removed and saved, and the platelets were resuspended in buffer A1 (35 mM citric acid, 103 mM NaCl, 5 mM each of glucose and KCl, 2 mM CaCl2, 1 mM […], 3.5 mg/mL BSA, 0.1 μM PGE1 and 0.3 U/mL of apyrase at pH 6.5). The resuspended platelets were washed 2 times with buffer A1. After the last wash, the platelets were resuspended in buffer B1 (137 mM NaCl, 2.6 mM KCL 12 mM NaHCO3, 0.3 mM NaH2 PO4, 3 mM CaCl2, 1 mM MgCl2, 5 mM glucose, 3.5 mg/mL BSA and […] apyrase at pH 7.4) at a density of 3×10^5 /μL. The platelets were maintained at room temperature until ready for use.
Various parameters relevant to platelet aggregation were obtained on a four channel aggregometer manufactured by AFFI BIO. In brief, the reaction chambers are warmed to 37° C. and are agitated at a rate of 1,200 rpm. Light is passed through the reaction chambers, with 300 μL of buffer B1 used to set the 100% transmittance level for each chamber. From a series of standardization experiments, it was determined that 0.5 U/mL of human thrombin (Sigma) is an optimal aggregating concentration of thrombin and is used to set. the 0% transmittance for the instrument. Standard conditions for the assay involve incubating 250 μL of the platelet suspension with or without 50 μL of inhibitor diluted in buffer in the reaction chambers for 60 seconds at 37° C. The value of transmittance is now set as 0%. After this measurement, thrombin is added to the reaction chambers (20 μl) and transmittance is measured for the next 6 minutes. Samples were performed in triplicate.

[2] = molecular target: thrombin from human plasma (Homo sapiens, UniProt P00734); assay: Km-based fluorogenic assay for inhibition of thrombin (Example 7); type: biochemical; design: from tissue; host or cells: human plasma; conditions: FIGS. 9 and 10
Description: Thrombin from human plasma was obtained from Enzyme System Products, Dublin, Calif., in glycerol:water 1:1, 11.4 mg/ml, 3800 U/mg, MW 36,700, and stored undiluted at -20° C. It was freshly diluted the day of use.
To dilute for the assay, 0.67 μl (25 Units) of thrombin was pipetted into 5 ml of 0.1 mg/ml BSA (from Pierce, Catalog No. 23209, BSA fraction V, a 2 mg/ml stock in saline with sodium azide), in cold PBS (GIBCO, Catalog No. 14190-136, without calcium chloride and magnesium chloride, pH 7.2) and briefly vortexed, yielding a stock of 5 mU thrombin/μl.
The substrate was N-tBOC-β-Benzyl-Asp-Pro-Arg-7-Amido4-Methylcoumarin HCl and was obtained from Sigma, Catalog No. B4028, Lot 122H0070, F.W. 770.3. Five mg was dissolved in […] DMSO for a 4 mM stock. The stock was stored in 200 μl aliquots at -20° C. in the dark.
An alternative substrate was N-tBOC-Val-Pro-Arg-7-Amido4-Methylcoumarin HCl and was obtained from Sigma, Catalog No. B-9385, Lot 53H0805, F.W. of free base 627.7. Five mg was dissolved in 1.863 ml DMSO for a 4 mM stock. The stock was stored in 200 μl aliquots at -20° C. in the dark.
The fluorescent standard was 7-Amido4-Methylcoumarin and was obtained from Aldrich, Catalog No. 25,737-0, MW 175.19. […]
Initial readings were taken to ensure exclusion of rogue wells with abnormally high backgrounds (λ excitation at 360 nm, bandwidth […], λ emission, 460 nm, bandwidth 40 nm). Then, 25 μl of a 10×stock of the putative inhibitor were added per well, mixed for 5 seconds and read kinetically for 10 minutes at ambient temperature to assess background interference and/or any increase in hydrolysis of substrate due to inhibitor.
The thrombin assay was then initiated by adding 25 μl of thrombin/well with a multichannel pipettor and mixed for 5 seconds. The appearence of the fluorescent product (free 7-amido-4-methylcoumarin released from the peptide by thrombin) was followed simultaneously in 48 wells (one reading per minute for 30 minutes, λ excitation at 360 nm, bandwidth 40 nm, λ emission, 460 nm, bandwidth 40 nm). […]

[3] = molecular target: human serum albumin (HSA) (Homo sapiens, UniProt P02768); assay: Mass spectrometric analysis of conjugation to HSA (HPLC/ESIMS); type: binding; conditions: HSA 5 μM, 1 hour, room temperature
Sequence of human serum albumin (HSA) (P02768 25-609): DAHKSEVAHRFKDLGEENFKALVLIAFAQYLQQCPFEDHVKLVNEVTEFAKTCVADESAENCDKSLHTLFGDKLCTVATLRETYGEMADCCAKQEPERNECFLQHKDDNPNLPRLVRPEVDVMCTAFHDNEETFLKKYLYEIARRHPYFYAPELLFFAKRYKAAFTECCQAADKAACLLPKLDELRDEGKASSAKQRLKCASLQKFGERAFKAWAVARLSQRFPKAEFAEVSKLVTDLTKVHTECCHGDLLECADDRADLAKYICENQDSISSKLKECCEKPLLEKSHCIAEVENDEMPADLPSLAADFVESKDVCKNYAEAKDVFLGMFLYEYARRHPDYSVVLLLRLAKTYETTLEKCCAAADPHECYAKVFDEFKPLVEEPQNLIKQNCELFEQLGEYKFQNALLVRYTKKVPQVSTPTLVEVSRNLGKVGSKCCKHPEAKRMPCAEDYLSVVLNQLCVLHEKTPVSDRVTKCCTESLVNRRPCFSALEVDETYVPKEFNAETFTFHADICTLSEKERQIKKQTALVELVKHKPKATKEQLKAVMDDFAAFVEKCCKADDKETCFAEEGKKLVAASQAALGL
Description: (§2) All samples were analyzed using a high performance liquid chromatograph (HPLC) coupled in-line to an electrospray ionization (ESI) mass spectrometer (MS) which is termed HPLC/ESIMS. Some samples were also analyzed using a matrix-assisted laser desorption ionization (MALDI) time-of-flight (TOF) mass spectrometer which is termed (MALDI-TOFMS).
(§3) Samples for HPLC/ESIMS were either prepared as duplicate reaction samples or were part of the same reaction samples which were used in the ELISA assays described below. These samples were injected directly only the HPLC/ESIMS without any manipulation other than dilution with water, where the PBS, DMSO, and unreacted derivative molecules are separated from the protein-argatroban derivative molecule conjugate. Samples for MALDI-MS were first HPLC-purified and mixed 1:1 directly on the stainless steel analysis plate with a matrix of 10 mg/ml sinnapinic acid in 50% acetonitrile/50% water. The mixture was then dried with a gentle flow of air to allow for crystallization and inserted into the instrument for laser ionization.
(§4) The HPLC is a Hewlett Packard 1090 Series II liquid chromatogram with a diode array detector. The column used for separation is a Brownlee aquapore OD-300 reversed phase C18 column, 1 mm×10 cm, 300 Å pore size, 7 μm particle diameter. The mass spectrometer to which the HPLC is connected using fused Silica capillary tubing is a Sciex API-300 triple quadrupole mass spectrometer with an ionspray source to allow for atmospheric pressure ionization of a liquid flowing continuously into the instrument. The MALDI-TOFMS is a Perceptive Biosystems Voyager Elite DE instrument run in the linear mode.

[4] = molecular target: rabbit serum albumin (RSA) (Oryctolagus cuniculus, UniProt P49065); assay: Mass spectrometric analysis of conjugation to RSA (HPLC/ESIMS, MALDI-TOFMS); type: binding; conditions: HPLC/ESIMS, RSA 4.5 μM, 1 hour, room temperature
Sequence of rabbit serum albumin (RSA) (P49065 25-608): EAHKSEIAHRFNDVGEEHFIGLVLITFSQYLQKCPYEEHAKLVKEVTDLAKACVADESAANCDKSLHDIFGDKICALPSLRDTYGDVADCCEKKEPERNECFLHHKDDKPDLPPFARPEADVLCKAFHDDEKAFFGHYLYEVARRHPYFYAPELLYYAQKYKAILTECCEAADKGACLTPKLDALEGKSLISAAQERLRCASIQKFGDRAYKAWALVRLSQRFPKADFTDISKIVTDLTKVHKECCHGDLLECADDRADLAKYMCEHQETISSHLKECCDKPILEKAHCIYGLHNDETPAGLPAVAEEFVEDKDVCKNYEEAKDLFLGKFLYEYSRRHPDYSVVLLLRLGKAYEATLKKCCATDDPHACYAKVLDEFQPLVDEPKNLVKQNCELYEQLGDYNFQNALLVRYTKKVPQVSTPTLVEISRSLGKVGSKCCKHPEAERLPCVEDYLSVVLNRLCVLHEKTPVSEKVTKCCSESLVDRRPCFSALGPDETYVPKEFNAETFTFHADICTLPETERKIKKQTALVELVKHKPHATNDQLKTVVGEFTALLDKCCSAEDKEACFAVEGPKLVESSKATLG
Description: as §2, §3, §4
as §1, with “A 15 μM solution of RSA in PBS was reacted with 200 μM argatroban-C6 NHS ester for 1 hour at room temperature.” left out

thrombin = assay: Sandwich ELISA for thrombin binding of conjugated proteins (anti-thrombin detection); conditions: hGPA conjugate, capture mAb 5F4, FIG. 4
Description: (§5) The plates were incubated at room temperature for 30 minutes and washed as above.
as §5
Next, 100 μl/well of ABC-HRP (Vector, catalog no. PK4000) was added, each component diluted 1:500 in PBS, pH 7.4, with 0.1% TWEEN 20 and incubated 30 minutes at room temperature prior to use.

[5] = system: anti-KLH-argatroban antibody; assay: Sandwich ELISA using polyclonal anti-KLH-argatroban antibodies; type: binding, rabbit; conditions: for concentration down to which detected: hGPA conjugate
Description: The reaction was quenched by adding hydroxylamine, pH 7.8 to a final concentration of 50 mM and incubating at room temperature for 10 minutes.
Rabbit anti-HSA monoclonal antibody (Boehringer/Mannheim, catalog no. 605001) diluted 1:5000 in PBS, pH 7.4 or mouse anti-hGPA monoclonal antibody (BioAtlan-tic/CRTS, mAb 5F4, diluted to 10 μg/ml in 0.1 M sodium acetate, pH 4.5 or mAb 3C10 diluted 1:500 or mAb 3E4 diluted 1:1000 in PBS, pH 7.4 - each antibody recognizes a different epitope of hGPA), were used to capture respective proteins by aliquotting 100 μl/well into a NUNC Maxisorp F96 plate (catalog no. 439454). The plates were incubated overnight at 4° C., were then blocked by the addition of 200 μl/well of 1% BSA/PBS and incubated at room temperature for 1 hour. The plates were then washed 5 times by submersion in PBS, pH 7.4.
Samples were incubated on the plates for 2 hours at room temperature and then were washed as above.
The plates were then incubated at room temperature for 30 minutes and washed as above.
Biotinylated goat anti-rabbit IgG (Vector, catalog no. BA1000) was diluted 1:1000 in 1% BSA/PBS, pH 7.4 and 100 μl/well added to all wells. The plates were incubated at room temperature for 30 minutes and washed as above.
Next, 100 μl/well of ABC-HRP (Vector, catalog no. PK4000) was added, each component diluted 1:500 in PBS, pH 7.4, with 0.1% TWEEN 20 and incubated 30 minutes at room temperature prior to use. The plates were then washed 10 times by submersion in PBS, pH 7.4.

RSA sham: RSA incubated for the same length of time at RT in 2% DMSO in PBS
IC50 (estimated concentration which inhibits 50% of the aggregation) [1]: > 150 µM | interference with platelet aggregation ([1]; even at 150 μM): did not interfere with platelet aggregation even at 150 μM | thrombin inhibition [2]: not inhibitory at any concentration assayed

CC1CNc2c(cccc2S(=O)(=O)N[C@@H](CCCNC(=N)N)C(=O)N2CC[C@@H](C)C[C@@H]2C(=O)O)C1 (stereo partly shown) [argatroban, reference compound]
IC50 (estimated concentration which inhibits 50% of the aggregation) [1]: approximately 0.1 μM | IC50 (estimated concentration which inhibits 50% of the aggregation) ([1]; listed as Free argatroban): 0.1 to 0.15 µM

CC1CNc2c(cccc2S(=O)(=O)NC(CCCNC(=N)N)C(=O)N2CCC(C)CC2C(=O)NCCCCCCCCCCCC(=O)ON2C(=O)CCC2=O)C1 (stereo not shown) [compound YL-015-11]
covalent addition of argatroban derivative molecules per HSA molecule ([3]; 0.5 μM ester): 0-4 argatroban derivative molecules per HSA molecule | covalent addition of argatroban derivative molecules per HSA molecule ([3]; 100 μM ester): 1-5 argatroban derivative molecules per HSA molecule | covalent addition of argatroban derivative molecules per RSA molecule ([4]; 0.5 μM ester): 0-3 argatroban derivative molecules per RSA molecule | covalent addition of argatroban derivative molecules per RSA molecule ([4]; 100 μM ester): 1-5 argatroban derivative molecules per RSA molecule

B1: hGPA reacted with argatroban-C6 NHS ester: human glycophorin A protein reacted with argatroban-C6 NHS ester (YL-015-35) (conjugate, UniProt P02724 20-150, looked up)
Glycophorin-A: LSTTEVAMHTSTSSSVTKSYISSQTNDTHKRDTYAATPRAHEVSEISVRTVYPPEEETGERVQLAHHFSEPEITLIIFGVMAGVIGTILLISYGIRRLIKKSPSDVKPLPSPDTDVPLSSVEIENPETSDQ
modifications: argatroban-C6 conjugate
concentration giving a detectable signal (binding of thrombin) (thrombin): approximately 30 ng/ml | increase of OD490 versus prequenched ester or protein alone ([5]; HSA and hGPA samples, FIGS. 5-8): significant increase of OD490 | concentration down to which detected ([5]; goat anti-rabbit erythrocyte capture): 60 ng/mL | concentration down to which detected ([5]; mouse anti-hGPA capture): 30 ng/mL | detection of hGPA-argatroban derivative ([5]; hGPA, 3C10 mAb, FIG. 7): at lower levels | detection of hGPA-argatroban derivative ([5]; hGPA, 3E4 mAb, FIG. 8): at lower levels | concentration at which a significant signal above background was detected ([5]; hGPA, 5F4 mAb, FIG. 6): ~12 ng/mL
